Experimental data published in ChEMBL document CHEMBL1275601, “Striking species difference in the contribution of concentrative nucleoside transporter 2 to nucleoside uptake between mouse and rat hepatocytes” (Antimicrob Agents Chemother, 2010).
Activity calls are given as the source filed them. The calls are words filed in the database; no cut-off is given here.

What was measured:
Assay type in all cases: cell-based
[1] = biological target: T1, Equilibrative nucleoside transporter 1 (Rattus norvegicus) (UniProt O54698); assay: Transport through ENT1 in rat hepatocytes by oil filtration assay; settings: Hepatocyte
T1 sequence (whole entry): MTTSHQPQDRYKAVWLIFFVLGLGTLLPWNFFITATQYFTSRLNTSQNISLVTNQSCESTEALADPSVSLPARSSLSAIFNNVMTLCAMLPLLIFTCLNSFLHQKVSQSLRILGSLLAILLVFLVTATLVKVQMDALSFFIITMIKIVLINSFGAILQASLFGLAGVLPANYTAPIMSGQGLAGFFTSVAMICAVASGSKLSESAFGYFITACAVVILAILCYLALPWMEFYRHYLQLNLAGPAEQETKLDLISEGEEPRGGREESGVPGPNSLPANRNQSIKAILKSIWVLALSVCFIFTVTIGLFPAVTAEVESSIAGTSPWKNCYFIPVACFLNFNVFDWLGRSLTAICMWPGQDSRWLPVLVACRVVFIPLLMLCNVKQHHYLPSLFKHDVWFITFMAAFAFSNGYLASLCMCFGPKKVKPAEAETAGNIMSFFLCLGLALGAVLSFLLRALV

[2] = biological target: T2, Sodium/nucleoside cotransporter 1 (Rattus norvegicus) (UniProt Q62674); assay: Transport through CNT1 in rat hepatocytes by oil filtration assay in presence of sodium ions in Kreb-henseleit buffer containing 100 uM NBMPR and 1 mM uridine; settings: Hepatocyte
T2 sequence (whole entry): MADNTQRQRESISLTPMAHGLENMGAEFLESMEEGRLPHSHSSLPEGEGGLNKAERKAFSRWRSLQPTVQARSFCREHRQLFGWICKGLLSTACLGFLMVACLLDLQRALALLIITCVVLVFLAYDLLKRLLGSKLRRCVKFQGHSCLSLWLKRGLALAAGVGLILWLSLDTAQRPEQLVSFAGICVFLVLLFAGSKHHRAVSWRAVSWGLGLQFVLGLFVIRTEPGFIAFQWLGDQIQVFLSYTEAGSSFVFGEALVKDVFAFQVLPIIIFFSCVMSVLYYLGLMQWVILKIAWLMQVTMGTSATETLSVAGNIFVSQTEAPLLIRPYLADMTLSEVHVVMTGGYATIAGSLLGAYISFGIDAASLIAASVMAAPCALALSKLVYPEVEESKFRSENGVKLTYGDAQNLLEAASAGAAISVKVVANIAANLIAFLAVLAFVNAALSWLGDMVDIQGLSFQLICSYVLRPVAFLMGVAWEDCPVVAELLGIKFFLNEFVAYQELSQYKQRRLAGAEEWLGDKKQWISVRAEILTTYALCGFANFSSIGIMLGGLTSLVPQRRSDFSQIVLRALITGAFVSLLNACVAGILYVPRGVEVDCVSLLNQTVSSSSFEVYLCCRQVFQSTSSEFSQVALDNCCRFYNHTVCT

[3] = biological target: T3, Equilibrative nucleoside transporter 2 (Rattus norvegicus) (UniProt O54699); assay: Transport through ENT2 in rat hepatocytes by oil filtration assay in presence of sodium ions in Kreb-henseleit buffer containing 100 uM NBMPR and 1 mM uridine; settings: Hepatocyte
T3 sequence (whole entry): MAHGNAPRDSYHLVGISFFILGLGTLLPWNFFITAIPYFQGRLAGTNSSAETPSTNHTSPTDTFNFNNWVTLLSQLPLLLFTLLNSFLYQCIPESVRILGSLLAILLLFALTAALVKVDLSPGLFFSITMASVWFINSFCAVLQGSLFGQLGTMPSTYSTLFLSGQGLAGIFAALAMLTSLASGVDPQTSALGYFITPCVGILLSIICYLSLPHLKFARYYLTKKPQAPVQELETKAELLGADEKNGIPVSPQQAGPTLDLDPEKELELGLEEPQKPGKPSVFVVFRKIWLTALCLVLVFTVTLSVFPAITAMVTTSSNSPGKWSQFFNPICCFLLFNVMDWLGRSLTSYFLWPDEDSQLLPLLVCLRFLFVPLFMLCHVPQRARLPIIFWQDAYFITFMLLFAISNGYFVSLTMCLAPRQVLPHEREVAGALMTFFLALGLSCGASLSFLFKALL

[4] = biological target: T3, Equilibrative nucleoside transporter 2 (Rattus norvegicus); assay: Transport through ENT2 in rat hepatocytes by oil filtration assay in presence of sodium ions in Kreb-henseleit buffer containing 100 uM NBMPR; settings: Hepatocyte
[5] = biological target: T1, Equilibrative nucleoside transporter 1 (Rattus norvegicus); assay: Transport through ENT1 in rat hepatocytes by oil filtration assay in presence of sodium ions in Kreb-henseleit buffer containing 100 uM NBMPR; settings: Hepatocyte
[6] = biological target: T3, Equilibrative nucleoside transporter 2 (Rattus norvegicus); assay: Transport through ENT2 in rat hepatocytes by oil filtration assay in presence of sodium ions in Kreb-henseleit buffer; settings: Hepatocyte
[7] = biological target: T3, Equilibrative nucleoside transporter 2 (Rattus norvegicus); assay: Transport through ENT2 in rat hepatocytes by oil filtration assay in presence 100 uM of transporter inhibitor NBMRP; settings: Hepatocyte
[8] = biological target: T4, Sodium/nucleoside cotransporter 2 (Rattus norvegicus) (UniProt Q62773); assay: Transport through CNT2 in rat hepatocytes by oil filtration assay in presence of sodium ions in Kreb-henseleit buffer containing 100 uM NBMPR and 1 mM inosine; settings: Hepatocyte
T4 sequence (whole entry): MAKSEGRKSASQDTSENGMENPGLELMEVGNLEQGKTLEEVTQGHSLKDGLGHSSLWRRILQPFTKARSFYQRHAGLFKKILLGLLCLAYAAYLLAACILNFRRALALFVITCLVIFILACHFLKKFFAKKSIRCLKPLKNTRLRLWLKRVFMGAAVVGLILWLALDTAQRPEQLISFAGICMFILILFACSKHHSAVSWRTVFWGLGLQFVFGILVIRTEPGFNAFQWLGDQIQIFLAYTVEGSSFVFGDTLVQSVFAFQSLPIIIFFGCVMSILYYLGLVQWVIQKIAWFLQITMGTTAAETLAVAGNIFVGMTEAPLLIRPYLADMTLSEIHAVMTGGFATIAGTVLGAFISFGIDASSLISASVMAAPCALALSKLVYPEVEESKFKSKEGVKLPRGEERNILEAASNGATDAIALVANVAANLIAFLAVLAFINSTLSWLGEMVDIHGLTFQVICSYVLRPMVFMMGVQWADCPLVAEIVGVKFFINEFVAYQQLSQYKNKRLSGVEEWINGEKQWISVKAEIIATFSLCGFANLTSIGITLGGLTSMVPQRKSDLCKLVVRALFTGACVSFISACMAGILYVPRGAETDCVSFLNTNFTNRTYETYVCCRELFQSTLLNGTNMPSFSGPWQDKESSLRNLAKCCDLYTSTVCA

[9] = biological target: T1, Equilibrative nucleoside transporter 1 (Rattus norvegicus); assay: Transport through ENT1 in rat hepatocytes by oil filtration assay in presence of sodium ions in Kreb-henseleit buffer containing 100 uM NBMPR and 1 mM uridine; settings: Hepatocyte
Hepatocyte = assay: Transport through CNT3 in rat hepatocytes by oil filtration assay

## NC(=O)c1ncn([C@@H]2O[C@H](CO)[C@@H](O)[C@H]2O)n1
[1]
  Activity: Active
[2]
  Activity: inactive
[3]
  Activity: inactive
[4]
  Activity: Active
[5]
  Activity: Active
[6]
  Activity: Active
[7]
  Activity: inactive
[8]
  Activity: inactive
[9]
  Activity: inactive
Hepatocyte
  Activity: Active

## Nc1ncnc2c1ncn2[C@@H]1O[C@H](CO)[C@@H](O)[C@H]1O
[1]
  Activity: inactive
[2]
  Activity: inactive
[3]
  Activity: inactive
[4]
  Activity: Active
[5]
  Activity: Active
[6]
  Activity: Active
[7]
  Activity: inactive
[8]
  Activity: inactive
[9]
  Activity: inactive
Hepatocyte
  Activity: inactive
